This assay addresses T1, m1 muscarinic receptor (Rattus norvegicus, UniProt P08482).
T1 construct: expressed in transfected cells; host or cells: A9 L cells (mouse fibroblast line)
T1 sequence (P08482 1-460): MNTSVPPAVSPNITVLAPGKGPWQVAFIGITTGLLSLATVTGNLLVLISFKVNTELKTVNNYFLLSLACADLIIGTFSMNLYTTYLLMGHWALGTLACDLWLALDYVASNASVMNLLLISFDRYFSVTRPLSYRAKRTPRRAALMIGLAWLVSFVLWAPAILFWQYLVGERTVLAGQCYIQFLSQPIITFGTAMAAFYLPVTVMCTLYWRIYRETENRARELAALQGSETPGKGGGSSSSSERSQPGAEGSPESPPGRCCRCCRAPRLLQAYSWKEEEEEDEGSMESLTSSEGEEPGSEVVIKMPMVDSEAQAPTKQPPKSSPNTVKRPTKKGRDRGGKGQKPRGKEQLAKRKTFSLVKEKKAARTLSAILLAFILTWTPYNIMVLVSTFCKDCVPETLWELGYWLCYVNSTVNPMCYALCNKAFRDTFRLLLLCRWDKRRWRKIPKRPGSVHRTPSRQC
Put plainly: IP hydrolysis in A9 L cells cloned with the genetic m1 muscarinic receptor. The format is cell-based, human and rat. The following applies: for Emax: A9L-m1, 0.75 h, percentage of total [3H]IP accumulated in the presence of 100 µM carbachol stimulation, 37°C for 45 min, read-out: % PI (efficacy); for EC50: IP hydrolysis, seven point curves, three separate experiments.

Where a name gives a salt, the structure may show the parent alone. Read-outs that look alike come from different tables or passages of the source.

Experimental: IP hydrolysis in A9 L cells cloned with the genetic m, muscarinic receptor: A9 L cells transfected with human and rat m, muscarinic receptors (Dörje et al., 1991; Jones et al., 1988), were cultured to confluence in 75-ml flasks containing Dulbecco's modified essential media. Cells were prelabeled with 1 µCi/ml of myo(2-[^3H]inositol (Amersham Inc., 16.3 Ci/mmol) for 48 hr before assaying. On the day of assay, cells were detached using a 30-sec exposure to 0.25% trypsin in 1 mM EDTA. The cells were collected by centrifugation (300 x g for 5 min) and resuspended in oxygenated HEPES buffer containing 10 mM LiCl (NaCl 142 mM, KCl 5.6 mM, CaCl2 2.2 mM, MgCl2 1 mM, NaHCO3 3.6 mM, D-glucose 5.6 mM and Na^+ HEPES 30 mM, pH 7.4). Cells were incubated at 37°C for 45 min in the presence of varying concentrations of test compounds. Total IP hydrolysis was determined using the method of Schoepp and Johnson (1988). […] Half-maximal (EC50) values were determined from the mean (±S.D.) of seven point curves determined from three separate experiments.

Regarding `FC(F)(F)c1cccc(C#CCOc2nsnc2[C@H]2CN3CCC[C@H]2C3)c1` [Compound 42, Exo (5R,6R)-6-(3-(3-(3-Trifluoromethylphenyl)-2-propyn-1-yloxy)-1,2,5-thiadiazol-4-yl)-1-azabicyclo[3.2.1]octane, (+)-tartrate], the Emax was 99%. The EC50 (read-out: EC50) came out at 12 nM.

For the molecule `COc1cccc(C#CC(C)Oc2nsnc2[C@H]2CN3CCC[C@H]2C3)c1` (stereo partly drawn) [Compound 43, Exo (5R,6R)-6-(3-(3-(3-Methoxyphenyl)-1-methyl-2-propyn-1-yloxy)-1,2,5-thiadiazol-4-yl)-1-azabicyclo[3.2.1]octane, (+)-tartrate], the Emax turned out to be 85%. The EC50 (read-out: EC50) turned out to be 9 nM.

For the molecule `Clc1ccc(C#CCOc2nsnc2[C@H]2CN3CCC[C@H]2C3)cc1` [Compound 44, Exo (5R,6R)-6-(3-(3-(4-Chlorophenyl)-2-propyn-1-yloxy)-1,2,5-thiadiazol-4-yl)-1-azabicyclo[3.2.1]octane, (+)-tartrate], the Emax came to 81%. In addition, the EC50 (read-out: EC50) was 32 nM.

`COc1cccc(C#CC(Oc2nsnc2[C@H]2CN3CCC[C@H]2C3)C(C)C)c1` (stereo partly drawn) [Compound 45, Exo (5R,6R)-6-(3-(1-(3-Methoxyphenyl)-4-methyl-1-pentyn-3-yloxy)-1,2,5-thiadiazol-4-yl)-1-azabicyclo[3 2.1]octane, (+)-tartrate]: the Emax is 66%. Where the note is “read-out: EC50”, the concentration for a half-maximal effect (EC50) turned out to be 8 nM.

Regarding `CC(C#Cc1cccs1)Oc1nsnc1[C@H]1CN2CCC[C@H]1C2` (stereo partly drawn) [Compound 47, Exo (5R,6R)-6-(3-(3-(2-Thienyl)-1-methyl-2-propyn-1-yloxy)-1,2,5-thiadiazol-4-yl)-1-azabicyclo[3.2.1]octane, (+)-tartrate], the Emax was found to be 102%. For the same molecule, the EC50 (read-out: EC50) worked out at 102 nM.

On to `CC(C#Cc1ccsc1)Oc1nsnc1[C@H]1CN2CCC[C@H]1C2` (stereo partly drawn) [Compound 48, Exo (5R,6R)-6-(3-(3-(3-Thienyl)-1-methyl-2-propyn-1-yloxy)-1,2,5-thiadiazol-4-yl)-1-azabicyclo[3.2.1]octane, (+)-tartrate], for which the Emax was determined as 96%. For the same molecule, the EC50 (read-out: EC50) amounted to 7 nM.

Take `C(#Cc1cccs1)COc1nsnc1[C@H]1CN2CCC[C@H]1C2` [Compound 49, Exo (5R,6R)-6-(3-[3-(2-Thienyl)-2-propyn-1-yloxy]-1,2,5-thiadiazol-4-yl)-1-azabicyclo[3 2 1]octane, oxalate]: the Emax came out at 100%. For the same molecule, where the note is “read-out: EC50”, the concentration for a half-maximal effect (EC50) came to 0.7 nM.

Regarding `C(#Cc1ccsc1)COc1nsnc1[C@H]1CN2CCC[C@H]1C2` [Compound 50, Exo (5R,6R)-6-(3-[3-(3-Thienyl)-2-propyn-1-yloxy]-1,2,5-thiadiazol-4-yl)-1-azabicyclo[3.2.1]octane, oxalate], the Emax worked out at 101%. Further, the EC50 (read-out: EC50) is 2 nM.

Molecule `O=C1CCCN1CC#CCN1CCCC1` [oxotremorine, reference compound] registered an EC50 (EC50, nM) of 16300 nM.

For the origin of these results see EP0977755B1, “HETEROCYCLIC COMPOUNDS AND THEIR PREPARATION AND USE” (NOVO NORDISK A/S, priority 1997, dated 1998).
